Activity calls are given as the source filed them.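 The calls were made as follows: active = viability below 80%, treated as toxic; inactive = the rest.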
system: HEK-293 viability, CellTiter-Glo, 3 days; assay: viability loss in HEK-293 cells – cell-based, powder set 1, set 2, cytotoxicity control for GRK2 aptamer-displacement inhibitor project, late-stage follow-up (AID 588540); details: at 20 µM; active compounds read low

Compound | viability
CCOc1ccc(NC(=O)CCS(=O)(=O)c2ccc(Br)cc2)cc1 | 108% (inactive)
O=C(CN1CCc2ccccc21)NC(=O)NCc1ccccc1 | 56.1%
Cc1cccc(CCNC(=O)CCS(=O)(=O)c2ccc(Br)cc2)c1 | 129% (inactive)
O=C(CCS(=O)(=O)c1ccc(Br)cc1)Nc1ccc(Br)cc1F | 116% (inactive)
COc1ccc(Cl)cc1NC(=O)CCS(=O)(=O)c1ccc(Br)cc1 | 106% (inactive)
CC(CS(=O)(=O)c1ccc2c(c1)NC(=O)CS2)C(=O)NCc1ccccc1Cl (stereo not drawn) | 119% (inactive)
CCN(CC)c1ccc(NC(=O)CCS(=O)(=O)c2ccc(Br)cc2)c(C)c1 | 97.3% (inactive)
COC(=O)c1ccccc1NC(=O)CCS(=O)(=O)c1ccc(Br)s1 | 81.6% (inactive)
C#CCSc1nc2sc3c(c2c(=O)n1C)CCC3 | 92.8% (inactive)
O=C(O)Cc1ccc(-n2cccc2)cc1 | 125% (inactive)
O=C(CSc1nc2ccccc2c(=O)n1-c1ccccc1)NC(=O)CN1CCCC1=O | 116% (inactive)
O=C(CCS(=O)(=O)c1ccc(Br)s1)Nc1ccccc1Br | 71.3%
COc1ccc(NC(=O)CCS(=O)(=O)c2ccc(Br)s2)cc1 | 86.8% (inactive)
CC(=O)N1CCN(Cc2nc3cc(Cl)ccc3c(=O)[nH]2)CC1 | 124% (inactive)
COc1ccc(CCNC(=O)CCS(=O)(=O)c2ccc(Br)cc2)cc1OC | 120% (inactive)
Cc1cc2ccccc2n1CCNC(=O)C(C)Oc1ccccc1 (stereo not drawn) | 68.6%
Cc1ccccc1NC(=O)CCS(=O)(=O)c1ccc(Br)s1 | 94.2% (inactive)
COC(=O)c1ccc(NC(=O)CCS(=O)(=O)c2ccc(Br)cc2)cc1 | 126% (inactive)
O=C(CCS(=O)(=O)c1ccc(Br)cc1)NCc1cccs1 | 131% (inactive)
CCOc1ccccc1NC(=O)CCS(=O)(=O)c1ccc(Br)cc1 | 79.5% (inactive)
COc1ccc([N+](=O)[O-])cc1NC(=O)CCS(=O)(=O)c1ccc(Br)cc1 | 118% (inactive)
NS(=O)(=O)c1ccc(CCNC(=O)CCS(=O)(=O)c2ccc(Br)cc2)cc1 | 124% (inactive)
Cc1ccc(CCNC(=O)CCS(=O)(=O)c2ccc(Br)cc2)cc1 | 126% (inactive)

From PubChem BioAssay AID588540 (NMMLSC, 2011)
